Experimental data: patent US20220132862A1, “PSEUDOMONAS SP. STRAIN, COMPOSITION COMPRISING THE SAME, AND USES THEREOF” (FUTURECO BIOSCIENCE, S.A., priority 2019, published 2022)

These molecules were tested on B2021 (assay: Antibiotic resistance, MIC by broth microdilution (BMD)). Details: lowest antibiotic concentration that inhibited 80% of growth; LB, 18 h, 28° C.
Format: cell-based, Pseudomonas sp.
Procedure: Minimum inhibitory concentrations (MICs) for tested antibiotics were determined by the broth microdilution (BMD) method. Four antibiotics were used: Streptomycin Sulfate, Nalidixic Acid, Oxytetracycline and Erythromycine. Briefly. MICs were determined in sterile 96-well plates by two-fold serial dilutions in 100 μL of LB. […] The MIC was defined as the lowest antibiotic concentration that inhibited 80% of growth (based on OD measurements) in comparison to the control. Moreover, cell viability was confirmed by addition of 30 μL of 0.01% resazurin. Any color changes from blue-purple to pink were recorded as positive and the MIC was defined as the lowest antibiotic concentration lacking this color change.

| Molecule | Antibiotic resistance (MIC) [µg/mL] |
| --- | --- |
| CN(C)[C@@H]1C(O)=C(C(N)=O)C(=O)[C@@]2(O)C(O)=C3C(=O)c4c(O)cccc4[C@@](C)(O)[C@H]3[C@H](O)[C@@H]12 [Oxytetracycline] | 3.13 |
| CC[C@H]1OC(=O)[C@H](C)[C@@H](O[C@H]2C[C@@](C)(OC)[C@@H](O)[C@H](C)O2)[C@H](C)[C@@H](O[C@@H]2O[C@H](C)C[C@H](N(C)C)[C@H]2O)[C@](C)(O)C[C@@H](C)C(=O)[C@H](C)[C@@H](O)[C@]1(C)O [Erythromycine] | 240 |
| CCn1cc(C(=O)O)c(=O)c2ccc(C)nc21 [Nalidixic Acid] | 240 |
| Streptomycine Sulfate | 1600 |
